Source: patent publication US8835481B2, “1-benzyl-3-hydroxymethylindazole derivatives and use thereof in the treatment of diseases based on the expression of MCP-1, CX3CR1 and P40” (Aziende Chimiche Riunite Angelini Francesco A.C.R.A.F. …, priority 2008, dated 2014)

Key:
[1] = tested on: MCP-1 protein production by LPS-stimulated MonoMac6 cells; assay: Measurement of the production of MCP-1 in a human monocyte line (ELISA); assay type: cell-based; settings: 1 h pre-incubation, LPS 100 ng/ml 20 h, MonoMac6 supernatant; for inhibition at 30 µM: MONO-MAC-6, compound 30 μM (maximum soluble concentration); for inhibition at 150 µM: MONO-MAC-6, compound 150 μM (maximum soluble concentration); for inhibition at 300 µM: MONO-MAC-6, compound 300 μM (maximum soluble concentration)
Description: (§1) The capacity of the compounds to inhibit the expression of the protein MCP-1 by lipopolysaccharide (LPS)-stimulated MonoMac6 cells was evaluated. The cells were placed in 96-well plates at a concentration of 50 000 cells/well. The compounds were tested at the maximum soluble concentration given in Table 2 (in the range 30-300 μM) and incubated for 1 hour. The cells were then stimulated with LPS (100 ng/ml) for 20 hours.
The amount of MCP-1 produced was measured in the supernatants, suitably diluted with buffer, by means of an immunoenzymatic test (ELISA) using a commercial kit (ELISA MCP-1/JE, R&D Systems).

[2] = tested on: MCP-1 expression by LPS-stimulated MonoMac6 cells; assay: Analysis of the gene expression of MCP-1 in a human monocyte line (real-time RT-PCR); assay type: cell-based; settings: 1 h pre-incubation, LPS 100 ng/ml 4 h
Description: as §1, with “of” for “of the protein”, “1” for “2”, “4” for “20”
(§2) The total RNA was extracted from the cell pellet using the RNeasy mini kit (Qiagen), reverse-transcribed with the TaqMan Reverse transcription reagents synthesis kit (Applied Biosystems) and the cDNA obtained was used for the real-time PCR reaction. The amplification was obtained in 96-well plates using the ABI Prism 7000 sequence detection system (Applied Biosystems), by applying the following temperature profile: 50° C. for 2 minutes, 95° C. for 10 minutes and 45 cycles at 95° C. for 15 seconds and 60° C. for 1 minute. For the amplification, a set of primers and probe specific for human MCP-1 was used (Applied Biosystems, RefSeq NM_002982.3). A set of primers and probe for β-actin was used in separate wells as an internal control of the samples for the purposes of normalization. Once the reaction had taken place, the fluorescence data were analysed using the ABI Prism 7000 SDS software, by calculating the threshold cycle (Ct) for each sample and subsequently performing a relative quantification via the ΔΔCt method.

[3] = tested on: CX3CR1 expression by LPS-stimulated MonoMac6 cells; assay: Analysis of the gene expression of CX3CR1 in a human monocyte line (real-time RT-PCR); assay type: cell-based; settings: 1 h pre-incubation, LPS 100 ng/ml 20 h, read-out: % inhibition of CX3CR1 expression (mRNA); for inhibition at 300 µM: MONO-MAC-6, compound 300 μM (maximum soluble concentration); for inhibition at 150 µM: MONO-MAC-6, compound 150 μM (maximum soluble concentration)
Description: The capacity of the compounds to inhibit the expression of CX3CR1 by lipopolysaccharide (LPS)-stimulated MonoMac6 cells was evaluated. The cells were placed in 96-well plates at a concentration of 50 000 cells/well. […] The cells were then stimulated with LPS (100 ng/ml) for 20 hours.
as §2, with “For the amplification, a set of primers and probe specific for human MCP-1 was used (Applied Biosystems, RefSeq NM_002982.3).” left out

[4] = tested on: p40 expression by LPS-stimulated MonoMac6 cells; assay: Analysis of the gene expression of p40 in a human monocyte line (real-time RT-PCR); assay type: cell-based; settings: 1 h pre-incubation, LPS 100 ng/ml 4 h, read-out: % inhibition of p40 expression (mRNA); for inhibition at 300 µM: MONO-MAC-6, compound 300 μM (maximum soluble concentration)
Description: as §1, with “p40” for “the protein MCP-1”, “4” for “2”, “4” for “20”
as §2, with “For the amplification, a set of primers and probe specific for human MCP-1 was used (Applied Biosystems, RefSeq NM_002982.3).” left out

[5] = compound 300 μM (maximum soluble concentration)
[6] = compound 150 μM (maximum soluble concentration)
[7] = MONO-MAC-6, compound 30 μM (maximum soluble concentration)

SMILES	melting point	inhibition at 150 µM [1]	inhibition at 300 µM [1]	% inhibition of MCP-1 expression (mRNA) [2, 5]	inhibition at 300 µM [3]	inhibition at 300 µM [4]	other results
CC(C)(OCc1nn(Cc2ccccc2)c2ccc(Br)cc12)C(=O)O [Compound 23, 2-[(1-benzyl-5-bromo-1H-indazol-3-yl)methoxy]-2-methylpropanoic acid]	168 to 170 °C	–	–	–	–	–	–
O=C(O)COCc1nn(Cc2ccc(Cl)cc2Cl)c2ccccc12 [Compound 18, {[1-(2,4-dichlorobenzyl)-1H-indazol-3-yl]methoxy}acetic acid]	–	–	–	–	–	–	inhibition at 30 µM [1]: 35%
CC(C)(OCc1nn(C2CCCc3ccccc32)c2ccccc12)C(=O)O (centres unmarked) [Compound 8, 2-methyl-2-{[1-(1,2,3,4-tetrahydronaphth-1-yl)-1H-indazol-3-yl]methoxy}-propanoic acid]	–	77%	–	–	–	–	–
O=C(O)COCCOCc1nn(Cc2ccccc2)c2ccccc12 [Compound 19, {2-[(1-benzyl-1H-indazol-3-yl)methoxy]ethoxy}acetic acid]	–	–	63%	–	–	–	–
COc1ccc2c(c1)c(COC(C)(C)C(=O)O)nn2Cc1ccccc1 [Compound 2, 2-[(1-benzyl-5-methoxy-1H-indazol-3-yl)methoxy]-2-methylpropanoic acid]	128 to 130 °C	–	66%	–	–	–	–
CC(C)(OCCOCc1nn(Cc2ccccc2)c2ccccc12)C(=O)O [Compound 20, 2-{2-[(1-benzyl-1H-indazol-3-yl)methoxy]ethoxy}-2-methylpropanoic acid]	94 to 95 °C	–	73%	29%	89%	58%	–
CC(C)(OCc1nn(Cc2ccccc2)c2ccc([N+](=O)[O-])cc12)C(=O)O [Compound 6, 2-[(1-benzyl-5-nitro-1H-indazol-3-yl)methoxy]-2-methylpropanoic acid]	–	100%	–	–	–	–	% inhibition of MCP-1 expression (mRNA) [2, 6]: 95%; inhibition at 150 µM [3]: 98%
CC(C)(OCCCOCc1nn(Cc2ccccc2)c2ccccc12)C(=O)O [Compound 21, 2-{3-[(1-benzyl-1H-indazol-3-yl)methoxy]propoxy}-2-methylpropanoic acid]	–	–	88%	61%	97%	50%	–
CC(C)(OCc1nn(Cc2ccc(Cl)cc2)c2ccccc12)C(=O)O [Compound 4, 2-{[1-(4-chlorobenzyl)-1H-indazol-3-yl]methoxy}-2-methylpropanoic acid]	–	54%	–	–	–	–	% inhibition of MCP-1 expression (mRNA) [2, 6]: 26%; inhibition at 150 µM [3]: 87%; inhibition at 150 µM ([4]; MONO-MAC-6, compound 150 μM (maximum soluble concentration)): 48%
CC(C)(OCc1nn(Cc2ccccc2)c2ccc(Cl)cc12)C(=O)O [Compound 5, 2-[(1-benzyl-5-chloro-1H-indazol-3-yl)methoxy]-2-methylpropanoic acid]	145 to 147 °C	82%	–	–	–	–	–
CC(C)(OCc1nn(Cc2ccc(Cl)c(Cl)c2)c2ccccc12)C(=O)O [Compound 7, 2-{[1-(3,4-dichlorobenzyl)-1H-indazol-3-yl]methoxy}-2-methylpropanoic acid]	–	–	–	–	–	–	inhibition at 30 µM [3, 7]: 85%; inhibition at 30 µM [4, 7]: 47%; inhibition at 30 µM [1]: 29%
CC(C)(OCc1nn(C(=O)c2ccccc2)c2ccccc12)C(=O)O [Compound 3, 2-[(1-benzoyl-1H-indazol-3-yl)methoxy]-2-methylpropanoic acid]	–	–	83%	65%	99%	64%	–
Cc1ccc(Cn2nc(COC(C)(C)C(=O)O)c3ccccc32)cc1 [Compound 22, 2-{[1-(4-methylbenzyl)-1H-indazol-3-yl]methoxy}-2-methylpropanoic acid]	–	37%	–	–	–	–	–
COc1ccc(Cn2nc(COC(C)(C)C(=O)O)c3ccccc32)cc1 [Compound 1, 2-{[1-(4-methoxybenzyl)-1H-indazol-3-yl]methoxy}-2-methylpropanoic acid]	169 to 171 °C	–	80%	57%	97%	50%	–
O=C(O)COCc1nn(Cc2ccc(F)cc2)c2ccccc12 [Compound 17, {[1-(4-fluorobenzyl)-1H-indazol-3-yl]methoxy}acetic acid]	–	–	39%	26%	90%	61%	–
